≈ marks a conversion by molar mass, not a printed value.
Assays:
Aspergillus flavus = assay: Antifungal activity against Aspergillus flavus ATCC 525 after 72 to 96 hrs by two fold serial dilution method; format: functional
Penicillium chrysogenum = assay: Antifungal activity against Penicillium chrysogenum ATCC 28089 after 72 to 96 hrs by two fold serial dilution method; format: functional
Pseudomonas = assay: Antibacterial activity against Pseudomonas ATCC 27853 after 24 hrs by two fold serial dilution method; format: functional; details: ATCC 27853, 24 h
Bacillus subtilis = assay: Antibacterial activity against Bacillus subtilis ATCC 530 after 24 hrs by two fold serial dilution method; format: functional; details: ATCC 530, 24 h
Fusarium oxysporum = assay: Antifungal activity against Fusarium oxysporum ATCC 48112 after 72 to 96 hrs by two fold serial dilution method; format: functional
Escherichia coli = assay: Antibacterial activity against Escherichia coli ATCC 26032 after 24 hrs by two fold serial dilution method; format: functional; details: ATCC 26032, 24 h
Staphylococcus aureus = assay: Antibacterial activity against Staphylococcus aureus ATCC 25930 after 24 hrs by two fold serial dilution method; format: functional; details: ATCC 25930, 24 h
Salmonella typhi = assay: Antibacterial activity against Salmonella typhi ATCC 25021 after 24 hrs by two fold serial dilution method; format: functional, Salmonella enterica subsp. enterica serovar Typhi; details: Salmonella enterica, ATCC 25021, 24 h
Rhizopus = assay: Antifungal activity against Rhizopus sp. ATCC 2842 after 72 to 96 hrs by two fold serial dilution method; format: functional
Aspergillus niger = assay: Antifungal activity against Aspergillus niger ATCC 635 after 72 to 96 hrs by two fold serial dilution method; format: functional

SMILES	MIC (Aspergillus flavus) [µg/mL]	MIC (Penicillium chrysogenum) [µg/mL]	MIC (Pseudomonas) [µg/mL]	MIC (Bacillus subtilis) [µg/mL]	MIC (Fusarium oxysporum) [µg/mL]	MIC (Escherichia coli) [µg/mL]	MIC (Staphylococcus aureus) [µg/mL]	MIC (Salmonella typhi) [µg/mL]	MIC (Rhizopus) [µg/mL]	MIC (Aspergillus niger) [µg/mL]
C=CCN1[C@@H](c2ccccc2)C(C)(C)/C(=N/OCc2ccccc2)C[C@H]1c1ccccc1 (relative stereo)	12.5 (≈ 29.4 µM)	6.25 (≈ 14.7 µM)	25 (≈ 58.9 µM)	6.25 (≈ 14.7 µM)	12.5 (≈ 29.4 µM)	50 (≈ 118 µM)	50 (≈ 118 µM)	12.5 (≈ 29.4 µM)	50 (≈ 118 µM)	25 (≈ 58.9 µM)
C=CCN1[C@H](c2ccccc2)C/C(=N\O)[C@@H](CC)[C@@H]1c1ccccc1 (relative stereo)	6.25 (≈ 18.7 µM)	50 (≈ 149 µM)	50 (≈ 149 µM)	12.5 (≈ 37.4 µM)	25 (≈ 74.7 µM)	100 (≈ 299 µM)	25 (≈ 74.7 µM)	25 (≈ 74.7 µM)	50 (≈ 149 µM)	12.5 (≈ 37.4 µM)
C=CCN1[C@H](c2ccc(OC)cc2)C/C(=N\O)[C@@H](C)[C@@H]1c1ccc(OC)cc1 (relative stereo)	12.5 (≈ 32.9 µM)	100 (≈ 263 µM)	12.5 (≈ 32.9 µM)	100 (≈ 263 µM)	25 (≈ 65.7 µM)	50 (≈ 131 µM)	25 (≈ 65.7 µM)	100 (≈ 263 µM)	25 (≈ 65.7 µM)	50 (≈ 131 µM)
C=CCN1[C@@H](c2ccccc2)CC(=O)C[C@H]1c1ccccc1	100 (≈ 343 µM)	12.5 (≈ 42.9 µM)	25 (≈ 85.8 µM)	100 (≈ 343 µM)	100 (≈ 343 µM)	200 (≈ 686 µM)	6.25 (≈ 21.4 µM)	50 (≈ 172 µM)	50 (≈ 172 µM)	25 (≈ 85.8 µM)
C=CCN1[C@H](c2ccccc2)CC(=O)[C@@H](CC)[C@@H]1c1ccccc1 (relative stereo)	100 (≈ 313 µM)	25 (≈ 78.3 µM)	100 (≈ 313 µM)	12.5 (≈ 39.1 µM)	50 (≈ 157 µM)	50 (≈ 157 µM)	100 (≈ 313 µM)	100 (≈ 313 µM)	12.5 (≈ 39.1 µM)	25 (≈ 78.3 µM)
C=CCN1[C@H](c2ccc(OC)cc2)CC(=O)[C@@H](C)[C@@H]1c1ccc(OC)cc1 (relative stereo)	50 (≈ 137 µM)	50 (≈ 137 µM)	100 (≈ 274 µM)	6.25 (≈ 17.1 µM)	25 (≈ 68.4 µM)	50 (≈ 137 µM)	100 (≈ 274 µM)	25 (≈ 68.4 µM)	25 (≈ 68.4 µM)	12.5 (≈ 34.2 µM)
C=CCN1[C@H](c2ccc(C)cc2)C/C(=N\OCc2ccccc2)[C@@H](C)[C@@H]1c1ccc(C)cc1 (relative stereo)	100 (≈ 228 µM)	6.25 (≈ 14.2 µM)	100 (≈ 228 µM)	50 (≈ 114 µM)	100 (≈ 228 µM)	200 (≈ 456 µM)	100 (≈ 228 µM)	50 (≈ 114 µM)	50 (≈ 114 µM)	12.5 (≈ 28.5 µM)
C=CCN1[C@H](c2ccccc2)[C@@H](C)/C(=N/OCc2ccccc2)[C@@H](C)[C@@H]1c1ccccc1 (relative stereo)	100 (≈ 236 µM)	50 (≈ 118 µM)	25 (≈ 58.9 µM)	100 (≈ 236 µM)	50 (≈ 118 µM)	100 (≈ 236 µM)	12.5 (≈ 29.4 µM)	50 (≈ 118 µM)	100 (≈ 236 µM)	200 (≈ 471 µM)
C=CCN1[C@H](c2ccc(Cl)cc2)C/C(=N\O)[C@@H](C)[C@@H]1c1ccc(Cl)cc1 (relative stereo)	50 (≈ 128 µM)	50 (≈ 128 µM)	50 (≈ 128 µM)	50 (≈ 128 µM)	12.5 (≈ 32.1 µM)	100 (≈ 257 µM)	6.25 (≈ 16.1 µM)	12.5 (≈ 32.1 µM)	25 (≈ 64.2 µM)	6.25 (≈ 16.1 µM)
C=CCN1[C@H](c2ccccc2)C/C(=N\OCc2ccccc2)[C@@H](C)[C@@H]1c1ccccc1 (relative stereo)	50 (≈ 122 µM)	100 (≈ 244 µM)	50 (≈ 122 µM)	6.25 (≈ 15.2 µM)	200 (≈ 487 µM)	25 (≈ 60.9 µM)	50 (≈ 122 µM)	12.5 (≈ 30.4 µM)	25 (≈ 60.9 µM)	50 (≈ 122 µM)
C=CCN1[C@H](c2ccc(Cl)cc2)C/C(=N\OCc2ccccc2)[C@@H](C)[C@@H]1c1ccc(Cl)cc1 (relative stereo)	12.5 (≈ 26.1 µM)	6.25 (≈ 13 µM)	100 (≈ 209 µM)	25 (≈ 52.1 µM)	25 (≈ 52.1 µM)	12.5 (≈ 26.1 µM)	6.25 (≈ 13 µM)	50 (≈ 104 µM)	6.25 (≈ 13 µM)	25 (≈ 52.1 µM)
C=CCN1[C@H](c2ccccc2)C/C(=N\O)[C@@H](C)[C@@H]1c1ccccc1 (relative stereo)	200 (≈ 624 µM)	100 (≈ 312 µM)	200 (≈ 624 µM)	50 (≈ 156 µM)	100 (≈ 312 µM)	50 (≈ 156 µM)	100 (≈ 312 µM)	100 (≈ 312 µM)	25 (≈ 78 µM)	50 (≈ 156 µM)
C[C@@H]1[C@H](O)[C@@H](C)/C=C/C=C/C=C/C=C/C=C/C=C/C=C/[C@H](O[C@@H]2O[C@H](C)[C@@H](O)[C@H](N)[C@@H]2O)C[C@@H]2O[C@](O)(C[C@@H](O)C[C@@H](O)[C@H](O)CC[C@@H](O)C[C@@H](O)CC(=O)O[C@H]1C)C[C@H](O)[C@H]2C(=O)O [AMPHOTERICIN B]	50 (≈ 54.1 µM)	12.5 (≈ 13.5 µM)			50 (≈ 54.1 µM)				25 (≈ 27.1 µM)	50 (≈ 54.1 µM)

— ChEMBL document CHEMBL2157909, “Design, synthesis, spectral and biological evaluation of novel 1-allyl substituted 2,6-diphenylpiperidin-4-ones and its derivatives of oximes/oxime ethers” (2012)
